The record followed here is the supplement of paper PMC10307832.

What all share (test): relative viability (nuclei count vs DMSO), 5 days (fraction); higher = more cells survive
Compound in assay [1]: NC(=O)c1ccc(N(C(N)=O)c2c(F)cccc2F)nc1-c1ccc(F)cc1F [VX-702] + Nc1nc2[nH]cc(CCc3ccc(C(=O)N[C@@H](CCC(=O)O)C(=O)O)cc3)c2c(=O)[nH]1 [Pemetrexed] (partner 0.2 µM)
In outline: (§1)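 One day after seeding in 1536-well plates, lung cancer cell lines were dosed by pin tool. Dosing was either single-drug or a fixed anchor-drug dose plus five library-drug doses (not always all listed) in √10 steps. After 5 days, nuclei were stained in one fix-and-stain step and counted on 4× images, and relative viability is the nuclei count of treated wells over that of vehicle wells, given as the median of duplicate plates.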

Compound in assay [2]: CC(C)(C)c1nc(-c2cccc(NS(=O)(=O)c3c(F)cccc3F)c2F)c(-c2ccnc(N)n2)s1 [Dabrafenib] + N=C(N)NC(=N)NCCc1ccccc1 [Phenformin] (partner 250 µM)
In outline:
as §1

Compound in assay [3]: NC(=O)c1ccc(N(C(N)=O)c2c(F)cccc2F)nc1-c1ccc(F)cc1F [VX-702] + Nc1ncn([C@H]2C[C@H](O)[C@@H](CO)O2)c(=O)n1 [Decitabine] (partner 2 µM)
In outline: as §1

Compound in assay [4]: NC(=O)c1ccc(N(C(N)=O)c2c(F)cccc2F)nc1-c1ccc(F)cc1F [VX-702] + Cc1nc(Nc2ncc(C(=O)Nc3c(C)cccc3Cl)s2)cc(N2CCN(CCO)CC2)n1 [Dasatinib] (partner 0.075 µM)
In short, it runs like this: as §1

Compound in assay [5]: NC(=O)c1ccc(N(C(N)=O)c2c(F)cccc2F)nc1-c1ccc(F)cc1F [VX-702] + CCNC(=O)c1noc(-c2cc(C(C)C)c(O)cc2O)c1-c1ccc(CN2CCOCC2)cc1 [Luminespib] (partner 0.01 µM)
In short, it runs like this: as §1

Turning to SW 900, the relative viability in assay [1] (first compound 0.02 µM) was 0.51; in assay [1] (first compound 0.2 µM), 0.488; in assay [1] (first compound 0.6325 µM), 0.474; in assay [1] (first compound 2 µM), 0.464; in assay [2] (first compound 0.009487 µM), 0.579; in assay [2] (first compound 0.03 µM), 0.561. Further, the relative viability worked out at 0.86 in assay [2] (first compound 0.3 µM); 0.47 in assay [3] (first compound 0.02 µM); 0.375 in assay [3] (first compound 0.2 µM); 0.393 in assay [3] (first compound 0.6325 µM); 0.425 in assay [3] (first compound 2 µM); 0.541 in assay [4] (first compound 0.02 µM). Besides, the relative viability came out at 0.664 in assay [4] (first compound 0.2 µM); 0.56 in assay [4] (first compound 0.6325 µM); 0.818 in assay [4] (first compound 2 µM); 0.202 in assay [5] (first compound 0.02 µM); 0.188 in assay [5] (first compound 0.2 µM); 0.15 in assay [5] (first compound 0.6325 µM). Besides, the relative viability in assay [5] (first compound 2 µM) is 0.16.
